Results as given in US20190127413A1, “Compositions and Methods for Non-Toxic Delivery of Antiprogestins” (Repros Therapeutics Inc., priority 2010, published 2019).
“Also recorded” adds a separate entry of the source.

Assays:
[1] = Pharmacokinetic studies on participating clinical trial subjects, oral CDB-4124; type: in vivo, human; conditions: for maximum concentration for the 12.5 mg dose as percentage of the 50 mg dose: oral CDB-4124, parent and mono-demethylated metabolite
Protocol: (§1) Pharmacokinetic studies performed on participating subjects detected a high Cmax and a Tmax at 1-2 hours following administration. […] Metabolism of CDB-4124 by the liver provides the opportunity for liver damage and greatly reduces the concentration of the antiprogestin before it reaches the systemic circulation. Thus, alternative routes of administration of antiprogestins that avoid first pass metabolism such as, without limitation, intravenous, intramuscular, and sublingual, should allow antiprogestins to be absorbed directly into the systemic circulation and thereby provide a method for treating progestone-dependent conditions while avoiding liver toxicity. Administration routes which avoid first pass metabolism may also require less drug per dose to achieve the same therapeutic benefit relative to oral administration.

[2] = Oral versus vaginal pharmacokinetics in beagles; type: in vivo; conditions: 25 mg; for metabolism after peak plasma concentration: oral, micronized powder; for metabolism / peak plasma concentration (Cmax): vaginal suppository
Protocol: Beagles were administered 25 mg of CDB-4124 or CDB-4453 (the monodemethylated metabolite of CDB-4124) formulated as either a micronized powder or a vaginal suppository. […] Moreover, systemic exposure of the drug is much lower when administered locally (compare AUC for CDB-4124 and CDB-4453 when administered vaginally vs. orally).

glucocorticoid receptor = molecular target: T1, glucocorticoid receptor (Homo sapiens, UniProt P04150); conditions: cited from earlier work
T1 sequence (P04150 1-777): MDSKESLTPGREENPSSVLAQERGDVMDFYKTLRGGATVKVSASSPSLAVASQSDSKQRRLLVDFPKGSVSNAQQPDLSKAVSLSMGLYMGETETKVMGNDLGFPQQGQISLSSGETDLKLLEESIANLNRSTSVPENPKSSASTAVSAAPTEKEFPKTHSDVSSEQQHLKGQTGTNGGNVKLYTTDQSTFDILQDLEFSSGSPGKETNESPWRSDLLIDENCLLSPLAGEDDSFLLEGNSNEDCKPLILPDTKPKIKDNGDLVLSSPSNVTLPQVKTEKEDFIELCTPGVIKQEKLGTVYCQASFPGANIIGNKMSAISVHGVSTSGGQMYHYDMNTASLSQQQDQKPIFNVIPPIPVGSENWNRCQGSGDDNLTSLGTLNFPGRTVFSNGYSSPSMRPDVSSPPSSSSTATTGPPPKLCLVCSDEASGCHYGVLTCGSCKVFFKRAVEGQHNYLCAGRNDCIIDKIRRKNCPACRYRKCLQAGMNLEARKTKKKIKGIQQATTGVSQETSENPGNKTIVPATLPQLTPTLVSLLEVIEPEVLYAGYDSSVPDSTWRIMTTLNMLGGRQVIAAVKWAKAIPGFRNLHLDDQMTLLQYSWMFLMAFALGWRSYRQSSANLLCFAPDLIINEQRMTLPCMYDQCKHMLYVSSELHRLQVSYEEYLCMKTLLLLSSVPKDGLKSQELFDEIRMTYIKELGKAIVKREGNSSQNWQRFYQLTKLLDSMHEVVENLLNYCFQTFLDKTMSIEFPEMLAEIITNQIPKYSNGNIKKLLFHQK

[3] = Clinical trials of daily oral CDB-4124 (Proellex) capsules: liver toxicity, liver enzymes; type: in vivo, human
Protocol: The maximum concentrations of CDB-4124 and its mono-demethylated metabolite (CDB-4453) for the 12.5 mg dose were 25% of the 50 mg dose. All liver toxicities resolved in those women that returned for safety follow-ups, including those subjects that developed liver-associated serious adverse effects (SAEs).
To date, over 600 patients, including women with confirmed cases of endometriosis or uterine fibroids, have participated in double blind and open label clinical trials in which patients were administered daily oral capsules containing doses of 12.5 mg, 25 mg or 50 mg CDB-4124 (Proellex) for over one month. Of these patients, about 500 received Proellex and about 130 received a placebo. Of the patients receiving Proellex, about 190 received a dose of 50 mg CDB-4124 per day, about 260 received a dose of 25 mg CDB-4124 per day and about 55 received a dose of 12.5 mg per day.
Liver enzymes were frequently monitored in participating subjects. The liver enzyme level at which the clinical trials would be discontinued was set at an increase in liver aminotransferases greater than, or equal to three times the Upper Limit of Normal (≥3×ULN).
Of the nine subjects with a confirmed increase in liver enzymes ≥3×ULN, seven were severe enough elevations to be reported to the FDA as SAEs. One of these seven subjects had been receiving a dose of 25 mg CDB-4124 per day; the remaining six subjects had been receiving a dose of 50 mg CDB-4124 per day. Liver enzymes ≥3×ULN persisted in five of the nine subjects with a confirmed increase in liver enzymes ≥3×ULN. These five subjects had previously been dosed with the 50 mg dose. One of these subjects is receiving oral medication for treatment of their liver condition. Clinical trials involving CDB-4124 at all doses were voluntarily suspended as a result of these SAEs and were subsequently placed on clinical hold by the United States Food and Drug Administration for safety reasons.

[4] = system: primary cultures of human and animal hepatocytes; experiment: Metabolism in primary cultures of hepatocytes; type: in vitro ADME; conditions: primary hepatocyte cultures
Protocol: as §1

[5] = Cmax after vaginal administration extrapolated from beagles to humans; type: in vivo; conditions: for predicted Cmax for vaginal administration as percentage of the same dose administered orally: humans
Protocol: The maximum circulating concentrations (Cmax) of CDB-4124 obtained following vaginal administration to beagles were extrapolated to humans for the 12.5 mg, 25 mg and 50 mg doses actually administered during the Phase III clinical studies.

[6] = system: progesterone-induced endometrial proliferation; experiment: Anti-Clauberg study, subcutaneous versus oral; type: in vivo, rabbits
Description: To determine whether the low circulating levels of CDB-4124 when administered locally could have any impact predictive of efficacy, an anti-Clauberg study was run in which immature estradiol-primed rabbits were coadministered progesterone and various doses of CDB-4124 by either subcutaneous or oral administration. At least 3 different highly trained individuals evaluated the rabbit uterus for glandular growth, for complexity and overall progesterone-induced “development”. The inhibition (by percentage) of progesterone-induced endometrial proliferation at each dose was assayed. […] However, maximal inhibition required a 8-fold increase in dosage when administered orally (i.e. 8 mg/kg). Importantly 8 mg/kg corresponds closely to the 50 mg/day dose of CDB-4124 administered to the female subjects described in Example 4.

[7] = system: progesterone-induced endometrial proliferation; experiment: Anti-Clauberg study, vaginal versus oral (McPhail index); type: in vivo, rabbits
Protocol: Another anti-Clauberg study was run in which immature estradiol-primed rabbits were administered progesterone alone (vehicle control) or were co-administered progesterone and three doses of CDB-4124 by either vaginal or oral administration. The inhibition of progesterone-induced endometrial proliferation at each dose was assayed. FIG. 3 illustrates the decrease in the McPhail index following increasing doses of CDB-4124 administered by either route. Maximal inhibition (i.e. a decrease in the McPhail index to 1.5) occurred at 0.2 mg/kg CDB-4124 when administered vaginally, compared to 0.8 mg/kg when administered orally.

CNc1ccc([C@H]2C[C@@]3(C)[C@@H](CC[C@]3(OC(C)=O)C(=O)COC)[C@@H]3CCC4=CC(=O)CCC4=C32)cc1 [CDB-4453, 21-methoxy-17α-acetoxy-11β-(4-N-methylaminophenyl)-19-norpregna-4,9-diene-3,20-dione]
maximum concentration for the 12.5 mg dose as percentage of the 50 mg dose [1]: 25% | systemic exposure (AUC), local (vaginal) versus oral [2]: much lower | metabolism after peak plasma concentration [2]: rapidly metabolized | metabolism [2]: metabolized slowly | peak plasma concentration (Cmax) [2]: relatively low | anti-glucocorticoid activity relative to parent CDB-4124 (glucocorticoid receptor): even lower anti-glucocorticoid activity than its parent

COCC(=O)[C@@]1(OC(C)=O)CC[C@H]2[C@@H]3CCC4=CC(=O)CCC4=C3[C@@H](c3ccc(N(C)C)cc3)C[C@@]21C [CDB-4124, 21-methoxy-17α-acetoxy-11β-(4 N, N-dimethylaminophenyl)-19-norpregna-4,9-diene-3,20-dione]
subjects with liver enzyme elevation reported as SAE ([3]; 25 mg CDB-4124 per day): One | subjects with liver enzyme elevation reported as SAE ([3]; 50 mg CDB-4124 per day): six | subjects in whom liver enzymes ≥3×ULN persisted ([3]; 50 mg dose): five | subjects with elevations severe enough to be reported to the FDA as SAEs ([3]; all doses): seven | subjects with increase in liver enzymes ≥3×ULN confirmed by repeat test in 48 hours ([3]; all doses): nine | subjects with increase in liver enzymes ≥3×ULN ([3]; all doses, first test): thirteen | adverse liver toxicity signals ([3]; oral, 12.5 mg, versus placebo): no adverse liver toxicity signals different from placebo | frequency and intensity of liver toxicity effects relative to 50 mg/day ([3]; oral, 25 mg/day): significantly lower in frequency and intensity | women exhibiting severe liver toxicity ([3]; oral, 50 mg/day, Phase III clinical studies): 3-4% | liver toxicity on chronic daily administration ([3]; therapeutic oral dosages, patients): exhibit liver toxicity | monodemethylated metabolite detected (first pass metabolism) ([1]; after oral ingestion of CDB-4124): Large quantities; also recorded: Large amounts | Cmax ([1]; following oral administration): high | Tmax ([1]; human, in vivo, following oral administration): 1 to 2 h | maximum concentration for the 12.5 mg dose as percentage of the 50 mg dose [1]: 25% | production of the mono-demethylated metabolite [4]: rapidly produce the mono-demethylated metabolite | systemic exposure (AUC), local (vaginal) versus oral [2]: much lower | metabolism after peak plasma concentration [2]: rapidly metabolized | metabolism [2]: metabolized slowly | peak plasma concentration (Cmax) [2]: relatively low | predicted Cmax for vaginal administration as percentage of the same dose administered orally ([5]; 12.5 mg dose): approximately 6.5% | predicted Cmax for vaginal administration as percentage of the same dose administered orally ([5]; 50 mg dose): approximately 2% | Cmax with 12.5 mg vaginal dose as percentage of that with 50 mg oral dose ([5]; in vivo, po): 2% | dose at which maximal inhibition of progesterone-induced endometrial proliferation was observed ([6]; oral): 8 mg/kg | increase in dosage required for maximal inhibition, oral versus subcutaneous ([6]; rabbit, in vivo): 8 fold | dose at which maximal inhibition of progesterone-induced endometrial proliferation was observed ([6]; subcutaneous): less than 1 mg/kg | dose at which maximal inhibition occurred ([7]; oral): 0.8 mg/kg | dose at which maximal inhibition occurred ([7]; vaginal): 0.2 mg/kg | McPhail index at maximal inhibition ([7]; vaginal 0.2 mg/kg or oral 0.8 mg/kg): 1.5
